# Data published in patent US20240049721A1, “COMPOSITIONS AND METHODS FOR CONTROLLING FUNGI” (priority 2020, published 2024).
# Where “and” joins values, the source holds several entries; their conditions need not be identical. Identical values can stand only once.
# Tests used:
# Fusarium graminearum = assay type: in vivo; details: wheat crop
# Leaf blotch = test: Wheat trial: leaf blotch; assay type: in vivo; details: wheat crop
# [1] = Loading (encapsulation) efficacy of essential oils into AgriCell; assay type: physicochemical; details: EO encapsulated into AgriCell; original EO concentration 200 mg/mL; UV-Vis at 280 nm after ethanol extraction
# Experimental: After AgriCells are purified, the concentrated AgriCell paste or dry lyophilized powder is loaded with EOs. If dry, the AgriCells are first homogenized into a finer powder through mechanical homogenization. A stock solution from each EO is prepared in ethanol at 100 mg/mL-200 mg/mL. Lyophilized AgriCells would then be suspended in a solution with the EO solution at a ratio of 1 g of dry AgriCells to 10 mL of EO solution. Once resuspended, the ethanol is allowed to evaporate overnight, leaving behind EO encapsulated AgriCells in the process. After this overnight period, encapsulated AgriCells are removed from the beaker, and the EO-encapsulated AgriCell powder is mechanically homogenized. This encapsulated product is ready for resuspension in its appropriate medium. Loading efficacy was measured and/or calculated as percentage of EO loaded into AgriCell after extraction with ethanol 100% v/v and quantification by UV-Vis spectroscopy. Eugenol, geraniol and thymol were quantified at 280 nm.
# [2] = Thermal degradation of essential oils at 40° C.; assay type: physicochemical
# Experimental: (§1) AgriCell-encapsulated EOs, which were AC-Eugenol, AC-Geraniol, and AC-Thymol, (200 mg/mL of EO loaded with 200 mg/mL of AgriCell) were diluted 1:10 in deionized water (total volume 1000 μL, 14 replicates for each EO) and the solutions were left at 40° C. for a total period of 7 days. One replicate of each EO per treatment was collected daily and tested for EO content. Results were reported as concentration of EO as function of time for each stability condition.
# [3] = Oxidative degradation of essential oils under UV and Vis light; assay type: physicochemical
# Experimental: as §1, with “under UV radiation” for “at 40° C.”, “content by UV-Vis spectroscopy as described in Example 2.” for “content.”
# [4] = Thermogravimetric analysis (TGA) 37° C. to 500° C.; assay type: physicochemical; details: temperature increase from 37° C. to 500° C.
# Experimental: FIG. 9 illustrates thermogravimetric Analysis (“TGA”) between AgriCell encapsulated Thymol (“AC Thymol”) and free Thymol (“Thymol”; not encapsulated by AgriCell) along with gradual increase of temperature from 37° C. to 500° C.
# Botrytis cinerea = details: against B. cinerea; reported value; cited from earlier work
smiles,measurement,setting,value
"CC(C)(C)C(O)(CCc1ccc(Cl)cc1)Cn1cncn1 (stereo not drawn) [Tebuconazole (Folicur), Tebuconazole]",Average FHB severity %,Fusarium graminearum,8.3% and 1.5%
same,FHB Incidence %,Fusarium graminearum,4.2% and 2.5%
same,Leaf blotch Incidence %,Leaf blotch,100%
same,Leaf blotch severity %,Leaf blotch,3.6% and 3.8%
C=CCc1ccc(O)c(OC)c1 [eugenol],encapsulation efficacy,[1],95.5%
same,percentage of degradation (thermal),"[2]; 7 days, 20 mg/mL",82.6%
same,oxidative degradation (reduction of EO),"[3]; 7 days, 20 mg/mL",82.6%
CC(C)=CCC/C(C)=C/CO [geraniol],encapsulation efficacy,[1],89.0%
same,percentage of degradation (thermal),"[2]; 40° C., day 7, diluted 1:10 in deionized water",84.2%
same,oxidative degradation (reduction of EO),"[3]; UV radiation, after 7 days, diluted 1:10 in deionized water",72.6%
Cc1ccc(C(C)C)c(O)c1 [thymol],encapsulation efficacy,[1],91.8%
same,percentage of degradation (thermal),"[2]; 7 days, 20 mg/mL",79.1%
same,oxidative degradation (reduction of EO),"[3]; 7 days, 20 mg/mL",55.8%
same,start of accelerated degradation (TGA),[4],about 62 °C
same,reported EC50,Botrytis cinerea,21.32 µg/mL
